Some results are limits rather than exact numbers.

The test system of assay [1] is E. coli strain IH 3080 (018:K1). Nature of the assay: MIC of antibiotics in the presence of polymyxin nonapeptide, microtiter plate, E. coli. In kind it is cell-based. The settings on record: for factor by which PMBN sensitized the strain to the antibiotic: E. coli 018:K1 strain IH 3080, from Table 2; for MIC of the antibiotic: E. coli IH 3080; for MIC of fusidic acid: E. coli. The protocol:
(§1) Methods. Smooth Salmonella typhimurium LT2 strain SL 696 (Wilkinson et al 1972 J. Gen. Microbiol. 70,527) was used as indicator organism. It was grown in Luria broth (Miller 1972. Experience in molecular genetics, Cold Spring Harbor Laboratory, New York) at 37° C. in a rotary shaker (220 rpm) into early logarithmic growth phase (Klett 40 units, Klett-Summerson colorimeter, red filter) washed with 0.9% NaCl and resuspended in 0.9% NaCl (final optical density 120 Klett units corresponding to approx. 10^9 cells/ml).
(§2) Erythromycin ethylsuccinate stock solution was prepared by dissolving 5.5 mg of erythromycin […] with 2 ml of 96% ethanol whereafter deionized water was added to a final volume of 5.5 ml. Other antibiotics were readily dissolved in deionized water.
(§3) Experimental procedure: Davis minimal growth medium (Sanderson et al, 1972, Bact. Rev. 36,608) containing glucose (1 g/l), casaminoacids (1 g/l. Difco), tryptophan (20 mg/l), and increasing amounts of a particular antibiotic was inoculated with 10^4 cells per ml of a fresh suspension of indicator bacteria. Aliquots (200 μl) of this inoculated medium were pipetted in wells of a microtiter plate (Titertek, CAT NO. 76-213-05, Flow Laboratories, United States). Each well already contained increasing amounts of the particular polycationic agent in 30 μl of 0.9% NaCl. The plates were sealed with adhesive tape and incubated at 37° C. for 18 h.
Methods. The methods were those presented in Example 3 except that E. coli was used as the test organism. The E. coli strain was IH 3080 (018:K1) isolated from the cerebrospinal fluid of a neonate with meningitis.
(§4) Methods. The known compound, polymyxin E nonapeptide (colistin E nonapeptide, Japanese patent specification Nos. 4178/1971 and 51355/1972) having the following formula: [drawing 5] where leu is leucine, thr is threonine, and dab is diaminobutyric acid, was prepared from polymyxin E (colistin) using an enzymatic ficin treatment as described by Chihara et al (Agr. Biol. Chem. 37,2455, 1973).

The subject of assay [2] is Salmonella typhimurium LT2 strain SL 696. Nature of the assay: MIC of antibiotics in the presence of polymyxin nonapeptide, microtiter plate, S. typhimurium. Conditions: for minimum inhibitory concentration (MIC) of the antibiotic: S. typhimurium SL 696, 18 h; for factor by which PMBN sensitized the strain to the antibiotic: S. typhimurium strain SL 696, from Table 1; for MIC of fusidic acid: S. typhimurium. In kind it is cell-based. The protocol: as §1, §2, §3, §4

The subject of assay [3] is E. coli strain IH 3080 (018:K1). Nature of the assay: Experimental E. coli infection in mice, PMBN combined with erythromycin. In kind it is in vivo, female NMRI mice. Conditions: for Number of dead mice: 10 mice per group. An excerpt:
Methods. […] The mice were followed 7 days for deaths.

For the compound `CC1(C)S[C@@H]2[C@H](NC(=O)Cc3ccccc3)C(=O)N2[C@H]1C(=O)O` [Benzylpenicillin, benzylpenicillin], the figures for the “factor by which PMBN sensitized the strain to the antibiotic” value (shortened to “factor”) in assay [1] and in assay [2] were 3 times and 10 times, respectively. For the same compound, the MIC of the antibiotic amounted to 10 µg/mL in assay [1] (PMBN 0 μg/ml); 10 µg/mL in assay [1] (PMBN 0.3 μg/ml); 10 µg/mL in assay [1] (PMBN 1 μg/ml); 3 µg/mL in assay [1] (PMBN 3 μg/ml); 3 µg/mL in assay [1] (PMBN 10 μg/ml). Also, the “minimum inhibitory concentration (MIC) of the antibiotic” value (“minimum inhibitory concentration (MIC)” below) in assay [2] (PMBN 0 μg/ml) was 10; in assay [2] (PMBN 0.3 μg/ml), 10; in assay [2] (PMBN 1 μg/ml), 10; in assay [2] (PMBN 3 μg/ml), 3; in assay [2] (PMBN 10 μg/ml), 3; in assay [2] (PMBN 30 μg/ml), 1.
On to `CCC[C@@H]1C[C@@H](C(=O)N[C@@H]([C@H]2O[C@H](SC)[C@H](O)[C@@H](O)[C@H]2O)[C@H](C)Cl)N(C)C1.Cl` [Clindamycin, clindamycin hydrochloride], for which the MIC of the antibiotic in assay [1] (PMBN 0 μg/ml) is 30 µg/mL; in assay [1] (PMBN 0.3 μg/ml) it was 3 µg/mL; in assay [1] (PMBN 1 μg/ml) it was 3 µg/mL; in assay [1] (PMBN 3 μg/ml) it was 3 µg/mL; in assay [1] (PMBN 10 μg/ml), 3 µg/mL.
`Cc1onc(-c2ccccc2Cl)c1C(=O)N[C@@H]1C(=O)N2[C@@H]1SC(C)(C)[C@@H]2C(=O)O` [Cloxacillin, cloxacillin]: the “factor” value in assay [1] is listed as 100 times; in assay [2] it was no less than 30 times. The MIC of the antibiotic in assay [1] (PMBN 0 μg/ml) was greater than 300 µg/mL; in assay [1] (PMBN 0.3 μg/ml), 100 µg/mL; in assay [1] (PMBN 1 μg/ml) it was 100 µg/mL; in assay [1] (PMBN 3 μg/ml) it was 30 µg/mL; in assay [1] (PMBN 10 μg/ml), 30 µg/mL. In addition, the “minimum inhibitory concentration (MIC)” value in assay [2] (PMBN 0 μg/ml) is no less than 1000; in assay [2] (PMBN 0.3 μg/ml), 300; in assay [2] (PMBN 1 μg/ml), 100; in assay [2] (PMBN 3 μg/ml), 100; in assay [2] (PMBN 10 μg/ml), 30; in assay [2] (PMBN 30 μg/ml) it was 30.
Take `CCOC(=O)CCC(=O)O[C@H]1[C@H](O[C@@H]2[C@@H](C)[C@H](O[C@H]3C[C@@](C)(OC)[C@@H](O)[C@H](C)O3)[C@@H](C)C(=O)O[C@H](CC)[C@@](C)(O)[C@H](O)[C@@H](C)C(=O)[C@H](C)C[C@@]2(C)O)O[C@H](C)C[C@@H]1N(C)C` [Erythromycin, erythromycin ethylsuccinate]: the “Number of dead mice” value in assay [3] (day 1 after infection, erythromycin 10 mg/kg i.p., PMBN 10 mg/kg s.c.) was 7; in assay [3] (day 2 after infection), 8; in assay [3] (day 3 after infection), 9; in assay [3] (day 4 after infection) it was 9; in assay [3] (day 5 after infection) it was 9; in assay [3] (day 6 after infection), 9. Also, the “Number of dead mice” value in assay [3] (day 7 after infection) was determined as 9. The “therapeutic action against the E. coli infection” value in assay [3] (mice, erythromycin 10 mg/kg, PMBN 10 mg/kg) is “without any therapeutic action”. Moreover, the “factor” value in assay [1] was no less than 100 times; in assay [2], no less than 30 times. Also, the MIC of the antibiotic in assay [1] (PMBN 0 μg/ml) worked out at 30 µg/mL; in assay [1] (PMBN 0.3 μg/ml), 1 µg/mL; in assay [1] (PMBN 1 μg/ml) it was 1 µg/mL; in assay [1] (PMBN 3 μg/ml), 1 µg/mL; in assay [1] (PMBN 10 μg/ml), 1 µg/mL. In addition, the “minimum inhibitory concentration (MIC)” value is given as no less than 100 in assay [2] (PMBN 0 μg/ml); 30 in assay [2] (PMBN 0.3 μg/ml); 10 in assay [2] (PMBN 1 μg/ml); 10 in assay [2] (PMBN 3 μg/ml); 3 in assay [2] (PMBN 10 μg/ml); 3 in assay [2] (PMBN 30 μg/ml).
In the case of `CC(=O)O[C@H]1C[C@@]2(C)[C@@H](C[C@@H](O)[C@H]3[C@@]4(C)CC[C@@H](O)[C@@H](C)[C@@H]4CC[C@@]32C)/C1=C(\CCC=C(C)C)C(=O)O` [Fusidic acid, fusidic acid], the “factor” value in assay [1] is listed as 100 times; in assay [2] it was no less than 100 times. For the same compound, the MIC of the antibiotic in assay [1] (PMBN 0 μg/ml) worked out at 100 µg/mL; in assay [1] (PMBN 0.3 μg/ml), 3 µg/mL; in assay [1] (PMBN 1 μg/ml), 3 µg/mL; in assay [1] (PMBN 3 μg/ml), 3 µg/mL; in assay [1] (PMBN 10 μg/ml), 1 µg/mL. Also, the “MIC of fusidic acid” value is reported as 100 in assay [1] (PMEN 0 μg/ml); 10 in assay [1] (PMEN 0.3 μg/ml); 10 in assay [1] (PMEN 1.0 μg/ml); 3 in assay [1] (PMEN 3.0 μg/ml); 3 in assay [1] (PMEN 10 μg/ml); 1 in assay [1] (PMEN 30 μg/ml). The “MIC of fusidic acid” value was 300 in assay [2] (PMEN 0 μg/ml); 100 in assay [2] (PMEN 0.3 μg/ml); 30 in assay [2] (PMEN 1.0 μg/ml); 10 in assay [2] (PMEN 3.0 μg/ml); 3 in assay [2] (PMEN 10 μg/ml); 1 in assay [2] (PMEN 30 μg/ml). Further, the “minimum inhibitory concentration (MIC)” value in assay [2] (PMBN 0 μg/ml) was 300; in assay [2] (PMBN 0.3 μg/ml), 100; in assay [2] (PMBN 1 μg/ml), 30; in assay [2] (PMBN 3 μg/ml), 30; in assay [2] (PMBN 10 μg/ml), 10; in assay [2] (PMBN 30 μg/ml) it was no less than 3.
`CCOc1ccc2ccccc2c1C(=O)N[C@@H]1C(=O)N2[C@@H]1SC(C)(C)[C@@H]2C(=O)O` [Nafcillin, nafcillin]: the “minimum inhibitory concentration (MIC)” value in assay [2] (PMBN 0 μg/ml) was no less than 1000; in assay [2] (PMBN 0.3 μg/ml) it was no less than 1000; in assay [2] (PMBN 1 μg/ml), 100; in assay [2] (PMBN 3 μg/ml), 100; in assay [2] (PMBN 10 μg/ml) it was 30; in assay [2] (PMBN 30 μg/ml), 30. The “factor” value in assay [2] is no less than 30 times.
For the compound `CO[C@@H]1[C@@H](OC(N)=O)[C@@H](O)[C@H](Oc2ccc3c(O)c(NC(=O)c4ccc(O)c(CC=C(C)C)c4)c(=O)oc3c2C)OC1(C)C` [Novobiocin, novobiocin], the entries for the “factor” value in assay [1] and in assay [2] were 10 times and no less than 100 times, respectively. For the same compound, the MIC of the antibiotic in assay [1] (PMBN 0 μg/ml) is 30 µg/mL; in assay [1] (PMBN 0.3 μg/ml) it was 10 µg/mL; in assay [1] (PMBN 1 μg/ml), 10 µg/mL; in assay [1] (PMBN 3 μg/ml), 3 µg/mL; in assay [1] (PMBN 10 μg/ml), 3 µg/mL. Further, the “minimum inhibitory concentration (MIC)” value in assay [2] (PMBN 0 μg/ml) is no less than 100; in assay [2] (PMBN 0.3 μg/ml), 10; in assay [2] (PMBN 1 μg/ml) it was 3; in assay [2] (PMBN 3 μg/ml), 3; in assay [2] (PMBN 10 μg/ml), 1; in assay [2] (PMBN 30 μg/ml), 1.
As to `CO[C@H]1/C=C/O[C@@]2(C)Oc3c(C)c(O)c4c(O)c(c(/C=N/N5CCN(C)CC5)c(O)c4c3C2=O)NC(=O)/C(C)=C\C=C\[C@H](C)[C@H](O)[C@@H](C)[C@@H](O)[C@@H](C)[C@H](OC(C)=O)[C@@H]1C` [Rifampicin], the “factor” value in assay [1] stood at 100 times. Also, the MIC of the antibiotic in assay [1] (PMBN 0 μg/ml) was 3 µg/mL; in assay [1] (PMBN 0.3 μg/ml), 3 µg/mL; in assay [1] (PMBN 1 μg/ml) it was 0.1 µg/mL; in assay [1] (PMBN 3 μg/ml) it was 0.03 µg/mL; in assay [1] (PMBN 10 μg/ml), 0.03 µg/mL.

The values above are taken from US4510132A, “Compounds for use in antibacterial therapy” (priority 1982, dated 1985).
